The assay deals with CDK-activating kinase assembly factor MAT1/Cyclin-H/Cyclin-dependent kinase 7 (Homo sapiens, UniProt P50613). Nature of the assay: n Vitro CDK7 (20 nM) Assay. The protocol: Compounds with potencies approaching the limit of detection of the assay (IC50 < 10 nM) were further assessed in a more sensitive fluorescence end-point assay. […] Absorbance at 340 nm was followed kinetically at an interval of 2 minutes for 8 hours.The assay was carried out with 100 μl reaction volume per well in a 384-well plate that was pre-spotted nanoliter volume of compounds by LabCyte Echo 555. Compound dilution plates were made by 2-fold (could vary upon necessity) dilution in DMSO for 11 concentrations plus a DMSO control of uninhibited reaction. 2x substrate and coupling reagent mixture was added to the assay plate followed by an addition of an equal volume of 40 nM CDK7/Cyclin H/MAT-1 complex. After mixing, assay plates were spun at 2000 rpm for 3 minutes and then transferred to the plate reader for data collection.
Sequence of CDK-activating kinase assembly factor MAT1/Cyclin-H/Cyclin-dependent kinase 7 (P51946 whole entry): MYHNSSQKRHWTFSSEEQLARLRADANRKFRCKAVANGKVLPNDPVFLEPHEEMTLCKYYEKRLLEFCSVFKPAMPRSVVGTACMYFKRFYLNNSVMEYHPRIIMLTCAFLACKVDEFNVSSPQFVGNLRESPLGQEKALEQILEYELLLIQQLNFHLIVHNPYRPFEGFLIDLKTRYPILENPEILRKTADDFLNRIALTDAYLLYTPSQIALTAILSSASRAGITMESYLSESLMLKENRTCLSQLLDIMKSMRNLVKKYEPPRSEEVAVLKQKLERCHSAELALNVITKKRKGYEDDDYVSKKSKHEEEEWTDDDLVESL
Sequence of CDK-activating kinase assembly factor MAT1/Cyclin-H/Cyclin-dependent kinase 7 (P50613 whole entry): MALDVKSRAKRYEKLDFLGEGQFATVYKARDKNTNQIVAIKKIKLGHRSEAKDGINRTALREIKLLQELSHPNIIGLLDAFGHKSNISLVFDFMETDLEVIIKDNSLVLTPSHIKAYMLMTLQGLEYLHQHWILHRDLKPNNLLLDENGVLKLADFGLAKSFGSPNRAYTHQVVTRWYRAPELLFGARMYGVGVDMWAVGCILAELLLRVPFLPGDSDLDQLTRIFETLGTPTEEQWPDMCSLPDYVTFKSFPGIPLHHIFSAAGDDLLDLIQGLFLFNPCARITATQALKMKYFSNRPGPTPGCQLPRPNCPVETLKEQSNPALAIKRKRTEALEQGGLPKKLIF
Sequence of CDK-activating kinase assembly factor MAT1/Cyclin-H/Cyclin-dependent kinase 7 (P51948 whole entry, further chain): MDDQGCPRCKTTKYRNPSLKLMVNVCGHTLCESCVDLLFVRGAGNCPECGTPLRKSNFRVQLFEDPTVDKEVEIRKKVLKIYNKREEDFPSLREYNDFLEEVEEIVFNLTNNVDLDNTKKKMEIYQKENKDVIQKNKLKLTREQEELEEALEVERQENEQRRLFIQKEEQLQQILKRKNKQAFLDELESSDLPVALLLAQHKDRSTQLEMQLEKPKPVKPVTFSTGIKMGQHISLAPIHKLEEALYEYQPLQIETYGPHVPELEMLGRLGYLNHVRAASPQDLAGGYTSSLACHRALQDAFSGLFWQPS

`C[C@@H]1Cc2cnc(NC3CCOCC3)nc2CN1C(=O)[C@H]1CCN(C2COC2)C[C@@H]1c1ccccc1` [WO2022064009, Compound 159] gave an IC50 of 575 nM.

One may read the IC50 as the concentration that inhibits the measured activity by half. A high value points to weaker potency in that assay.

The values are drawn from BindingDB's records for patent WO2022064009 (JANSSEN PHARMACEUTICA NV, 2022).
